Results from publication PMC10141580, “Cyclic Dichalcogenides Extend the Reach of Bioreductive Prodrugs to Harness Thiol/Disulfide Oxidoreductases: Applications to seco-Duocarmycins Targeting the Thioredoxin System” (ACS Central Science, 2023).
Several values for one entry are separate records, joined by “and”; a condition that tells them apart may be missing. Equal values may be shown once. Read-outs that look alike come from different tables or passages of the source.

Tested on: panel of 140 standard cancer cell lines
Test: ProliFiler-140 cancer cell line screen (CellTiterGlo, 72 h)
Type: cell-based
Procedure: Incubations were performed for 72 h before automated viability readout with CellTiterGlo (Figure 8).
End of Figure S11 (part 5 of 5): ProliFiler-140 cancer cell line screening for cytotoxicity of the prodrugs.
8-data-point dose response curves from CellTiter-Glo® viability readout.
ProliFiler-140 cell line panel part V

## COc1cc2cc(C(=O)N3C[C@@H](CCl)c4c3cc(OC(=O)N(CCC(=O)N3CCN(C)CC3)[C@H]3CCSSC3)c3ccccc43)[nH]c2c(OC)c1OC [P-SS60-CBI-TMI]
MKN-1 (Stomach)
  Reductive Activation Index: 7.3
MKN-1 (Stomach), read-out: IC50 [M] (ProliFiler-140)
  IC50: 2.1e-07 M
MKN-45 (Stomach)
  Reductive Activation Index: 5.36
MKN-45 (Stomach), read-out: IC50 [M] (ProliFiler-140)
  IC50: 9.08e-08 M and 9.1e-08 M
MOLM-13 (Blood), read-out: IC50 [M] (ProliFiler-140)
  IC50: 9.1e-09 M and 9.12e-09 M
MOLT-4 (Blood), read-out: IC50 [M] (ProliFiler-140)
  IC50: 1.3e-08 M and 1.29e-08 M
MOLT-4, read-out: IC50
  IC50: 1.3e-08 M
MV4-11 (Blood), read-out: IC50 [M] (ProliFiler-140)
  IC50: 2.8e-09 M and 2.76e-09 M
Mia PaCA 2 (Pancreas)
  Reductive Activation Index: 5.48
Mia PaCA 2 (Pancreas), read-out: IC50 [M] (ProliFiler-140)
  IC50: 6.84e-08 M and 6.8e-08 M
NALM-6 (Blood)
  Reductive Activation Index: 5.7
NALM-6 (Blood), read-out: IC50 [M] (ProliFiler-140)
  IC50: 9.79e-09 M and 9.8e-09 M
NCI-H82 (Lung)
  Reductive Activation Index: 5.0
NCI-H82 (Lung), read-out: IC50 [M] (ProliFiler-140)
  IC50: 1.5e-07 M and 1.49e-07 M
NCI-H292 (Lung), read-out: IC50 [M] (ProliFiler-140)
  IC50: 4.8e-08 M and 4.84e-08 M
NCI-H441 (Lung)
  Reductive Activation Index: 5.40
NCI-H441 (Lung), read-out: IC50 [M] (ProliFiler-140)
  IC50: 5.44e-08 M and 5.4e-08 M
NCI-H838 (Lung)
  Reductive Activation Index: 6.2
NCI-H838 (Lung), read-out: IC50 [M] (ProliFiler-140)
  IC50: 1.2e-07 M and 1.21e-07 M
NCI-H1048 (Lung)
  Reductive Activation Index: 7.4
NCI-H1048 (Lung), read-out: IC50 [M] (ProliFiler-140)
  IC50: 8e-09 M and 8.01e-09 M
NCI-H1437 (Lung), read-out: IC50 [M] (ProliFiler-140)
  IC50: 5.21e-08 M and 5.2e-08 M
NCI-H1563 (Lung)
  Reductive Activation Index: 8.6
NCI-H1563 (Lung), read-out: IC50 [M] (ProliFiler-140)
  IC50: 2e-07 M and 1.97e-07 M
NCI-H1573 (Lung)
  Reductive Activation Index: 6.1
NCI-H1573 (Lung), read-out: IC50 [M] (ProliFiler-140)
  IC50: 1.8e-07 M and 1.76e-07 M
NCI-H1581 (Lung), read-out: IC50 [M] (ProliFiler-140)
  IC50: 4.23e-08 M and 4.2e-08 M
NCI-H1703 (Lung)
  Reductive Activation Index: 6.7
NCI-H1703 (Lung), read-out: IC50 [M] (ProliFiler-140)
  IC50: 1.2e-07 M and 1.21e-07 M
NCI-H1838 (Lung)
  Reductive Activation Index: 9.6
NCI-H1838 (Lung), read-out: IC50 [M] (ProliFiler-140)
  IC50: 8.5e-08 M and 8.53e-08 M
NCI-H2009 (Lung), read-out: IC50 [M] (ProliFiler-140)
  IC50: 6.17e-08 M and 6.2e-08 M
NCI-H2110 (Lung), read-out: IC50 [M] (ProliFiler-140)
  IC50: 2.7e-08 M and 2.67e-08 M
NCI-H2286 (Lung), read-out: IC50 [M] (ProliFiler-140)
  IC50: 1.9e-08 M and 1.91e-08 M
NCI-N87 (Stomach)
  Reductive Activation Index: 8.1
NCI-N87 (Stomach), read-out: IC50 [M] (ProliFiler-140)
  IC50: 1.4e-07 M and 1.41e-07 M
OCI-AML3 (Blood), read-out: IC50 [M] (ProliFiler-140)
  IC50: 3.3e-08 M and 3.29e-08 M
OCI-AML5 (Blood)
  Reductive Activation Index: 3.9 and 3.93
OCI-AML5 (Blood), read-out: IC50 [M] (ProliFiler-140)
  IC50: 8.6e-09 M and 8.62e-09 M
OCI-LY19 (Blood)
  Reductive Activation Index: 3.74
OCI-LY19 (Blood), read-out: IC50 [M] (ProliFiler-140)
  IC50: 4.11e-09 M and 4.1e-09 M
OPM-2 (Blood)
  Reductive Activation Index: 5.41
OPM-2 (Blood), read-out: IC50 [M] (ProliFiler-140)
  IC50: 1.22e-07 M and 1.2e-07 M
OV56 (Ovary)
  Reductive Activation Index: 3.10
OV56 (Ovary), read-out: IC50 [M] (ProliFiler-140)
  IC50: 6.51e-08 M and 6.5e-08 M
OVCAR-3 (Ovary)
  Reductive Activation Index: 8.7
OVCAR-3 (Ovary), read-out: IC50 [M] (ProliFiler-140)
  IC50: 1.2e-07 M and 1.17e-07 M
OVCAR-3, read-out: IC50
  IC50: 1.2e-07 M
OVK18 (Ovary)
  Reductive Activation Index: 4.66
OVK18 (Ovary), read-out: IC50 [M] (ProliFiler-140)
  IC50: 4.29e-08 M and 4.3e-08 M
P31/FUJ (Blood), read-out: IC50 [M] (ProliFiler-140)
  IC50: 3.7e-08 M and 3.66e-08 M
PANC-1 (Pancreas)
  Reductive Activation Index: 5.4
PANC-1 (Pancreas), read-out: IC50 [M] (ProliFiler-140)
  IC50: 2.5e-07 M and 2.53e-07 M
PC3 (Prostate), read-out: IC50 [M] (ProliFiler-140)
  IC50: 5.8e-08 M
PC3, read-out: IC50
  IC50: 5.8e-08 M
PC-9 (Lung), read-out: IC50 [M] (ProliFiler-140)
  IC50: 1.7e-08 M
RERF-LC-Ad2 (Lung)
  Reductive Activation Index: 4.2 and 4.21
RERF-LC-Ad2 (Lung), read-out: IC50 [M] (ProliFiler-140)
  IC50: 1.9e-07 M and 1.86e-07 M
RERF-LC-MS (Lung), read-out: IC50 [M] (ProliFiler-140)
  IC50: 6.44e-08 M and 6.4e-08 M
RKO (Colon), read-out: IC50 [M] (ProliFiler-140)
  IC50: 4.51e-08 M and 4.5e-08 M
RL95-2 (Endometrium)
  Reductive Activation Index: 4.84
RL95-2 (Endometrium), read-out: IC50 [M] (ProliFiler-140)
  IC50: 1.54e-07 M and 1.5e-07 M
RPMI 8226 (Blood), read-out: IC50 [M] (ProliFiler-140)
  IC50: 3.86e-08 M and 3.9e-08 M
RPMI 8226, read-out: IC50
  IC50: 3.9e-08 M
SCH (Stomach), read-out: IC50 [M] (ProliFiler-140)
  IC50: 5.2e-08 M and 5.16e-08 M
SCLC-21H (Lung)
  Reductive Activation Index: 4.91
SCLC-21H (Lung), read-out: IC50 [M] (ProliFiler-140)
  IC50: 3.21e-08 M and 3.2e-08 M
SJSA-1 (Bone)
  Reductive Activation Index: 15.99
SJSA-1 (Bone), read-out: IC50 [M] (ProliFiler-140)
  IC50: 2.37e-08 M and 2.4e-08 M
SK-BR-3 (Breast), read-out: IC50 [M] (ProliFiler-140)
  IC50: 7.4e-08 M and 7.39e-08 M
SK-ES-1 (Bone), read-out: IC50 [M] (ProliFiler-140)
  IC50: 5.66e-09 M and 5.7e-09 M
SK-LU-1 (Lung), read-out: IC50 [M] (ProliFiler-140)
  IC50: 2.7e-08 M
SK-MEL-3 (Skin)
  Reductive Activation Index: 5.8
SK-MEL-3 (Skin), read-out: IC50 [M] (ProliFiler-140)
  IC50: 1.8e-07 M and 1.77e-07 M
SK-N-FI (Brain)
  Reductive Activation Index: 5.68
SK-N-FI (Brain), read-out: IC50 [M] (ProliFiler-140)
  IC50: 1.2e-07 M
SK-N-MC (Brain), read-out: IC50 [M] (ProliFiler-140)
  IC50: 2.7e-09 M
SK-N-SH (Brain)
  Reductive Activation Index: 5.1 and 5.09
SK-N-SH (Brain), read-out: IC50 [M] (ProliFiler-140)
  IC50: 1.5e-07 M and 1.46e-07 M
SK-OV3 (Ovary), read-out: IC50 [M] (ProliFiler-140)
  IC50: 6.17e-08 M and 6.2e-08 M
SK-OV3, read-out: IC50
  IC50: 6.2e-08 M
SNU840 (Ovary)
  Reductive Activation Index: 1.83
SNU840 (Ovary), read-out: IC50 [M] (ProliFiler-140)
  IC50: 3.82e-08 M and 3.8e-08 M
SNU-1 (Stomach), read-out: IC50 [M] (ProliFiler-140)
  IC50: 3e-08 M
SNU-16 (Stomach), read-out: IC50 [M] (ProliFiler-140)
  IC50: 1.23e-07 M and 1.2e-07 M
SNU-216 (Stomach)
  Reductive Activation Index: 6.77 and 6.8
SNU-216 (Stomach), read-out: IC50 [M] (ProliFiler-140)
  IC50: 2.72e-07 M and 2.7e-07 M
SU-DHL-5 (Blood)
  Reductive Activation Index: 6.4
SU-DHL-5 (Blood), read-out: IC50 [M] (ProliFiler-140)
  IC50: 7.8e-09 M and 7.78e-09 M
SW480 (Colon)
  Reductive Activation Index: 5.10
SW480 (Colon), read-out: IC50 [M] (ProliFiler-140)
  IC50: 6.5e-08 M
SW620 (Colon)
  Reductive Activation Index: 5.01
SW620 (Colon), read-out: IC50 [M] (ProliFiler-140)
  IC50: 1.4e-07 M
SW620, read-out: IC50
  IC50: 1.4e-07 M
SW948 (Colon)
  Reductive Activation Index: 5.26
SW948 (Colon), read-out: IC50 [M] (ProliFiler-140)
  IC50: 1.29e-07 M and 1.3e-07 M
SW-1783 (Brain), read-out: IC50 [M] (ProliFiler-140)
  IC50: 6.68e-08 M and 6.7e-08 M
Saos-2 EC (Bone)
  Reductive Activation Index: 6.02
Saos-2 EC (Bone), read-out: IC50 [M] (ProliFiler-140)
  IC50: 3.88e-08 M and 3.9e-08 M
SiHa (Ovary)
  Reductive Activation Index: 5.51
SiHa (Ovary), read-out: IC50 [M] (ProliFiler-140)
  IC50: 1.11e-07 M and 1.1e-07 M
T84 (Colon)
  Reductive Activation Index: 5.12 and 5.1
T84 (Colon), read-out: IC50 [M] (ProliFiler-140)
  IC50: 1.77e-07 M and 1.8e-07 M
T98G (Brain), read-out: IC50 [M] (ProliFiler-140)
  IC50: 8.64e-08 M and 8.6e-08 M
T-47D (Breast)
  Reductive Activation Index: 4.5
T-47D (Breast), read-out: IC50 [M] (ProliFiler-140)
  IC50: 2.3e-07 M and 2.31e-07 M
T-47D, read-out: IC50
  IC50: 2.3e-07 M
U2OS (Bone)
  Reductive Activation Index: 5.36
U2OS (Bone), read-out: IC50 [M] (ProliFiler-140)
  IC50: 2.44e-08 M and 2.4e-08 M
U87MG (Brain)
  Reductive Activation Index: 5.4
U87MG (Brain), read-out: IC50 [M] (ProliFiler-140)
  IC50: 2.3e-07 M and 2.25e-07 M
U118MG (Brain)
  Reductive Activation Index: 2.81
U118MG (Brain), read-out: IC50 [M] (ProliFiler-140)
  IC50: 1.4e-07 M
U251MG (Brain)
  Reductive Activation Index: 11
U251MG (Brain), read-out: IC50 [M] (ProliFiler-140)
  IC50: 1.9e-07 M and 1.88e-07 M
U-266 (Blood), read-out: IC50 [M] (ProliFiler-140)
  IC50: 2.23e-08 M and 2.2e-08 M
U-937 (Blood)
  Reductive Activation Index: 4.50
U-937 (Blood), read-out: IC50 [M] (ProliFiler-140)
  IC50: 1.64e-08 M and 1.6e-08 M
ZR-75-1 (Breast)
  Reductive Activation Index: 6.4
ZR-75-1 (Breast), read-out: IC50 [M] (ProliFiler-140)
  IC50: 2.22e-07 M and 2.2e-07 M
read-out: IC50 [M] (ProliFiler-140)
  IC50: 1.74e-08 M and 1.7e-08 M
